Measured values published in US20240132431A1, “METHOD FOR ALKYLATING ACIDIC FUNCTIONAL GROUP” (Chugai Seiyaku Kabushiki Kaisha, priority 2021, published 2024).

Molecular target: T1, Bcl-2 protein (Recombinant Human Bcl-2 Protein) (Homo sapiens, UniProt P10415)
T1 construct: purchased Novus NBP2-34889
Assay: Binding evaluation of mixture library compounds to Bcl-2 using AS-MS (affinity selection mass spectrometry)
Conditions: AS-MS on the mixture of 1200 library compounds, ASMS Ratio(%)=(A−C)/B×100; for ASMS ratio (%) n = 1: replicate n = 1; for ASMS ratio (%) n = 2: replicate n = 2
Outline: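 ASMS Ratio (%) was calculated as (A−C)/B×100, where A is the protein sample after SEC, B the protein-free sample without SEC and C the protein-free sample after SEC. Each compound was at […] in a 1200-member pool with 20 μM Bcl-2, incubated 1 h at 23° C.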

T1 sequence (P10415 whole entry): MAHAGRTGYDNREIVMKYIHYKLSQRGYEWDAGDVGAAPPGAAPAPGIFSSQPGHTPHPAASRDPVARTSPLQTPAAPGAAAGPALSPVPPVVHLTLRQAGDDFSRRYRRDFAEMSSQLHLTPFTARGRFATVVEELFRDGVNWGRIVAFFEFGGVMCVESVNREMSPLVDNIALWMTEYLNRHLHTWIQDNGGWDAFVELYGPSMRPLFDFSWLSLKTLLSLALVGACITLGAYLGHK

Row | Structure (SMILES) | ASMS ratio (%) n = 1 [%] | ASMS ratio (%) n = 2 [%]
1 | CCOc1cncc(-c2cc(C(=O)N3CCN(c4ccc(C(=O)N(CC)CC)nn4)CC3)cc(C(F)(F)F)c2)c1 [B4J018-01, 6-[4-[3-(5-Ethoxypyridin-3-yl)-5-(trifluoromethyl)benzoyl]piperazin-1-yl]-N,N-diethylpyridazine-3-carboxamide] | −0.5 | −1.7
2 | CCOc1cccc(C#Cc2cc(C(=O)N3CCN(c4ccc(C(=O)N(CC)CC)nn4)CC3)cc(C(F)(F)F)c2)c1 [B4J019-01, 6-[4-[3-[2-(3-Ethoxyphenyl)ethynyl]-5-(trifluoromethyl)benzoyl]piperazin-1-yl]-N,N-diethylpyridazine-3-carboxamide] | −0.5 | −2.1
3 | CCOc1cncc(C#Cc2cc(C(=O)N3CCN(c4ccc(C(=O)N(CC)CC)nn4)CC3)cc(C(F)(F)F)c2)c1 [B4J020-01, 6-[4-[3-[2-(5-Ethoxypyridin-3-yl)ethynyl]-5-(trifluoromethyl)benzoyl]piperazin-1-yl]-N,N-diethylpyridazine-3-carboxamide] | 0.0 | 0.0
4 | CCOc1cccc(-c2cnn(-c3cc(C(=O)N4CCN(c5ccc(C(=O)N(CC)CC)nn5)CC4)cc(C(F)(F)F)c3)c2)c1 [B4J021-01, 6-[4-[3-[4-(3-Ethoxyphenyl)pyrazol-1-yl]-5-(trifluoromethyl)benzoyl]piperazin-1-yl]-N,N-diethylpyridazine-3-carboxamide] | 0.0 | 0.0
5 | CCOc1cncc(-c2cnn(-c3cc(C(=O)N4CCN(c5ccc(C(=O)N(CC)CC)nn5)CC4)cc(C(F)(F)F)c3)c2)c1 [B4J022-01, 6-[4-[3-[4-(5-Ethoxypyridin-3-yl)pyrazol-1-yl]-5-(trifluoromethyl)benzoyl]piperazin-1-yl]-N,N-diethylpyridazine-3-carboxamide] | 0.2 | −0.7
6 | CCOc1cccc(-c2csc(C(=O)N3CCN(c4ccc(C(=O)N(CC)CC)cc4)CC3)c2)c1 [B4J023-01, 4-[4-[4-(3-Ethoxyphenyl)thiophene-2-carbonyl]piperazin-1-yl]-N,N-diethylbenzamide] | 3.5 | −3.4
7 | CCOc1cncc(-c2csc(C(=O)N3CCN(c4ccc(C(=O)N(CC)CC)cc4)CC3)c2)c1 [B4J024-01, 4-[4-[4-(5-Ethoxypyridin-3-yl)thiophene-2-carbonyl]piperazin-1-yl]-N,N-diethylbenzamide] | −0.6 | 6.8
8 | CCOc1cccc(-c2ccc(C(=O)N3CCN(c4ccc(C(=O)N(CC)CC)cc4)CC3)cc2C)c1 [B4J025-01, 4-[4-[4-(3-Ethoxyphenyl)-3-methylbenzoyl]piperazin-1-yl]-N,N-diethylbenzamide] | 3.6 | −0.3
9 | CCOc1cncc(-c2ccc(C(=O)N3CCN(c4ccc(C(=O)N(CC)CC)cc4)CC3)cc2C)c1 [B4J026-01, 4-[4-[4-(5-Ethoxypyridin-3-yl)-3-methylbenzoyl]piperazin-1-yl]-N,N-diethylbenzamide] | −3.6 | −5.9
10 | CCOc1cccc(-c2ccc(C(=O)N3CCN(c4ccc(C(=O)N(CC)CC)cc4)CC3)cc2F)c1 [B4J027-01, 4-[4-[4-(3-Ethoxyphenyl)-3-fluorobenzoyl]piperazin-1-yl]-N,N-diethylbenzamide] | −0.5 | 0.2
11 | CCOc1cncc(-c2ccc(C(=O)N3CCN(c4ccc(C(=O)N(CC)CC)cc4)CC3)cc2F)c1 [B4J028-01, 4-[4-[4-(5-Ethoxypyridin-3-yl)-3-fluorobenzoyl]piperazin-1-yl]-N,N-diethylbenzamide] | −1.0 | 0.9
12 | CCOc1cccc(C#Cc2ccccc2C(=O)N2CCN(c3ccc(C(=O)N(CC)CC)cc3)CC2)c1 [B4J029-01, 4-[4-[2-[2-(3-Ethoxyphenyl)ethynyl]benzoyl]piperazin-1-yl]-N,N-diethylbenzamide] | 0.0 | 0.0
